Measured values: patent US20250170154A1 (GreenStone Biosciences, Inc., priority 2023, published 2025)

What was measured:
[1] = log P; assay type: physicochemical
[2] = Intestinal stability, human intestinal S9; assay type: in vitro ADME
Protocol: (§1) The stability of compounds 1 and 2, and the control compound 7-hydroxycoumarin, were measured using human, rat, and mouse intestinal S9 fractions (Xenotech). Test compound working solutions were prepared by diluting 5 μL of 10 mM stock solutions in DMSO with 495 μL AN. S9 solutions were prepared by diluting the obtained S9 solutions to 1.0 mg/mL in 100 mM potassium phosphate buffer at pH 7.4 containing 10 mM D-saccharic acid-1,4-lactone. An Apricot automation workstation was used to add 100 μL/well of S9 solution to all reaction plates (Blank, T0, T5, T15, T30, T45, T60 and NCF60); 2 μL/well of compound working solutions were added to all 96-well reaction plates except the blank (T0, T5, T15, T30, T45, T60, and NCF60); 600 μL/well of stop solution (4° C. ACN containing 200 ng/mL tolbutamide and 200 ng/mL labetalol as internal standards) was added to the T0 reaction plate; all plates were pre-incubated at 37° C. for 10 minutes; a cofactor regenerating system (98 μL/well) was added, excluding the NCF60 plate which instead received 98 μL/well of 100 mM potassium phosphate buffer. All plates were then incubated at 37° C. To terminate reactions, 600 μL/well of stop solution was applied at specific end time points. After sealing and a 10-minute shaking, plates were centrifuged at 4000 rpm and 4° C. for 20 minutes. Concurrently, 300 μL/well of HPLC grade water was loaded onto eight new 96-well bioanalysis plates. Post-centrifugation, 100 μL supernatant from each reaction plate was transferred to its corresponding bioanalysis plate, shaken for 10 minutes, and then subjected to LC-MS/MS analysis (Shimadzu LC-40D LC system coupled to a Sciex Qtrap 6500 Plus mass spectrometer, using both positive and negative ion modes).

[3] = Conjugate formation in intestinal S9 incubations; assay type: in vitro ADME, human, rat, mouse
Protocol: as §1, with “Concurrently, 300 μL/well of HPLC grade water was loaded onto eight new 96-well bioanalysis plates. Post-centrifugation, 100 μL supernatant from each reaction plate was transferred to its corresponding bioanalysis plate, shaken for 10 minutes, and then subjected to LC-MS/MS analysis (Shimadzu LC-40D LC system coupled to a Sciex Qtrap 6500 Plus mass spectrometer, using both positive and negative ion modes).” left out

[4] = Stability in simulated gastric fluid (SGF); assay type: in vitro ADME; details: SGF pH 1.2, 37° C., 2 μM
Protocol: The stability of compounds 1 to 4, and the control compound omeprazole, were measured in simulated gastric fluid (SGF: 0.2% w/v sodium chloride, 0.7% v/v hydrochloric acid, and 0.32% w/v pepsin in deionized water, pH 1.2±0.05). Stock solutions of the compounds (10 mM) were diluted to 200 μM in DMSO, then duplicate 2 μL aliquots added to 96-well plates for time points 0, 1, 2, 6, and 24 hours. SGF (198 μL) was added to all wells except those for time 0, to give a starting compound concentration of 2 μM; and the samples were incubated at 37° C. with agitation at 600 rpm for the prescribed times. After incubation, 200 μL of each sample was extracted and mixed with 400 μL cold ACN containing 200 ng/mL tolbutamide and labetalol as internal standards. The samples were centrifuged at […] for 20 minutes at 4° C., and the supernatants (60 μL) each diluted with purified water (180 μL) for LC/MS/MS analysis. The percentage of the test compound remaining at each time point was calculated based on the ratio of the peak area of the analyte to the internal standards.

[5] = test system: patients with moderate to severe rheumatoid arthritis; test: Randomized, double-blind, placebo-controlled study in rheumatoid arthritis; assay type: in vivo, human; details: oral 500 mg capsule once daily for 24 weeks; expected
Protocol: Approximately 120 patients, ages 30-65, diagnosed with rheumatoid arthritis according to the 2010 ACR/EULAR classification criteria, are enrolled in a randomized, double-blind, placebo-controlled study to evaluate the efficacy of compound 2 in patients with moderate to severe rheumatoid arthritis. Participants are randomized to receive either oral compound 2 (500 mg capsule) or placebo once daily for a period of 24 weeks. The primary efficacy endpoint is the improvement in the Disease Activity Score-28 (DAS28) with C-reactive protein (CRP) at week 24. A clinically meaningful reduction in DAS28 score is defined as a reduction of ≥1.2 points from baseline. Secondary endpoints include: Improvement in physical function as measured by the Health Assessment Questionnaire Disability Index (HAQ-DI), reduction in morning stiffness and joint pain, and changes in levels of inflammatory cytokines such as TNF-α, IL-6, and IL-1β. […] Additionally, compound 2 is expected to reduce serum levels of pro-inflammatory cytokines and markers of joint damage such as matrix metalloproteinases (MMPs), thus providing evidence of its disease-modifying effects.

[6] = test system: LMNA^H222P/H222P mouse; test: Dilated cardiomyopathy model, echocardiography; assay type: in vivo; details: continuous 4 weeks by osmotic pumps
Protocol: The LMNA^H222P/H222P mouse is a well-established model for studying dilated cardiomyopathy and heart failure, with cardiac dysfunction typically beginning to manifest at around 16 weeks of age. In this study, 16-week-old LMNA^H222P/H222P mice underwent baseline echocardiography prior to treatment. Compound 2 was then administered continuously for 4 weeks using osmotic pumps, with DMSO as the vehicle control. At the end of the treatment period, echocardiography was performed again to assess the impact of compound 2 on cardiac function compared to the control group. […] In a FLNC knockout model using the Myh6-Cre:FLNC^wt/F mouse, 16-week-old mice underwent baseline echocardiography, were treated with compound 2 at 50 mg/Kg/day or vehicle by gavage for 6 weeks, and underwent echocardiography to assess the change in cardiac function. […] The genistein phosphate derivatives of this invention are therefore expected to be useful for the treatment of subjects with dilated cardiomyopathy.

[7] = test system: 16 month-old mice; test: 16 month-old mice with 7-day osmotic pumps; assay type: in vivo, mouse
Protocol: Three groups of 16 month-old mice were implanted with 7-day osmotic pumps dispensing vehicle, 0.24 mg/Kg/day, and 2.4 mg/Kg/day of compound 2. All three groups of animals lost ˜1% of body weight over the 7 days.

[8] = Pharmacokinetics in the rat, dosing in solution; details: rat, in vivo, 25 mg/kg
[9] = increases seen in control group
[10] = 0.24 and 2.4 mg/Kg/day, 7-day osmotic pumps

O=c1c(-c2ccc(O)cc2)coc2cc(OCOP(=O)(O)O)cc(O)c12 [Compound 2, ((5-Hydroxy-3-(4-hydroxyphenyl)-4-oxo-4H-chromen-7-yl)oxy)methyl dihydrogen phosphate]
logP [1]: 1.59
normalized control factor remaining [2]: 56.6%
half-life at 1 µM ([2]; intestinal S9 fraction, pH 7.4): 26.8 min
microsomal CLint at 1 µM ([2]; intestinal S9 fraction, pH 7.4, read-out: intrinsic clearance rate): 51.7 µL/min/mg
formation of glucuronidation, sulfation, and glutathione conjugates [3]: noticeable absence
Percentage remaining at time: 1 hour ([4]; 1 hour): 100%
Percentage remaining at time: 2 hours ([4]; 2 hours): 104%
Percentage remaining at time: 6 hours ([4]; 6 hours): 116%
Percentage remaining at time: 24 hours ([4]; 24 hours): 113%
Percentage remaining at time: 0 ([4]; time 0): 100%
serum levels of pro-inflammatory cytokines [5]: reduce
ejection fraction ([6]; vs DMSO control group): reduced the decrease
fractional shortening ([6]; vs DMSO control group): reduced the decrease
left ventricular diameter [6, 9]: reduced
left ventricular volume [6, 9]: reduced
fasting blood glucose relative to the control group ([7]; 2.4 mg/Kg/day group): significant decrease
body weight lost over the 7 days ([7]; 0.24 and 2.4 mg/Kg/day groups (same as vehicle group)): ~1%
IL-13 blood levels [7, 10]: reduced in a dose-dependent manner
Leptin blood levels [7, 10]: reduced in a dose-dependent manner
fasting blood glucose relative to the control group ([7]; both treatment groups, 0.24 and 2.4 mg/Kg/day, 7-day osmotic pumps): lowered
Cmax ([8]; male, SD): ~30 ng/mL
Tmax ([8]; male, SD): ~8 min
decline of plasma concentration of dosed compound [8]: very rapid decline in concentration
